What was measured:
[1] = system: supernatant from the P. aeruginosa strain producing LasB; assay: Luminescence of probe with LasB-secreting P. aeruginosa supernatant with and without EDTA; type: biochemical, Pseudomonas aeruginosa
[2] = Luminescence of probe in the presence of glutathione; type: physicochemical; conditions: 5 µM probe, 100 µM GSH, HEPES buffer pH 8, 37 °C, time-gated emission
[3] = Luminescence of probe in the presence of H2O2; type: physicochemical; conditions: 5 µM probe, 0.5 mM H2O2, HEPES buffer pH 8, 37 °C, time-gated emission
[4] = Luminescence of probe in the presence of pyocyanin and P. aeruginosa supernatant; type: physicochemical
[5] = system: supernatant from P. aeruginosa strain producing LasB; type: biochemical, Pseudomonas aeruginosa; conditions: P1[Tb]: 0.5 mM probe, 50 mM CaCl2, HEPES buffer, 9 µL supernatant, RT, 1 h before injection
[6] = biological target: LasB (Pseudomonas aeruginosa, UniProt P14756); conditions: 1, 5, 7.5, 10 µM probe, 1 mM CaCl2, 60.6 nM (2 µg/mL) LasB, 10 mM HEPES pH 8.0, 37 °C, time-gated emission every 15 min for 10 h, fit to hit-and-run model (Dynafit)
Sequence of LasB (P14756 198-498): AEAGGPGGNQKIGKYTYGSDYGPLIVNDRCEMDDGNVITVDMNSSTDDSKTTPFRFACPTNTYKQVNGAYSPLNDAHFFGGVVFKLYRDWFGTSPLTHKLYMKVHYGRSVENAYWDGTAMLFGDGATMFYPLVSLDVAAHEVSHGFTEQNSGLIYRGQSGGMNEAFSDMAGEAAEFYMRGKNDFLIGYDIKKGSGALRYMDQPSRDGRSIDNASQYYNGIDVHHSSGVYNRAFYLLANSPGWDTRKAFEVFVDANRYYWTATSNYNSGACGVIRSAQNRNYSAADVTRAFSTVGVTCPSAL

[7] = system: E. coli supernatant; conditions: 10 µM probe, 1 mM CaCl2, HEPES buffer, 10 µL E. coli supernatant, 20 h at 37 °C, time-gated emission

Substance: EGLAEW [P1[Tb]]
- reduction of luminescence 3 h after supernatant addition, in the absence of EDTA [1]: approximately 90%
- reduction of luminescence 3 h after supernatant addition, with EDTA [1]: approximately 30%
- change of luminescence 20 h after addition of glutathione [2]: remained constant
- change of luminescence 20 h after addition of H2O2 [3]: remained constant
- probe activity toward P. aeruginosa supernatant in the presence of pyocyanin [4]: remained active
- reduction of emission band intensity on incubation with pyocyanin ([4]; 5 µM probe, 1 µM pyocyanin, HEPES buffer, 37 °C, time-gated emission): approximately 20%
- cleavage of probe by wild-type P. aeruginosa supernatant (HPLC-MS) [5]: cleaved at the G-L bond
- apparent rate constant ksub (equivalent to specificity constant kcat/Km) [6]: 0.438 ± 0.007 μM^–1min^–1
- change of luminescence with E. coli supernatant [7]: no changes in the luminescence
- luminescence response to P. aeruginosa supernatant added after incubation in 1.2% FBS: gradual reduction in the luminescence emission
- time of stable luminescence in 1.2% FBS (10 µM probe, 1.2% v/v fetal bovine serum in HEPES buffer, 37 °C, time-gated emission every hour for 12 h): at least 12 h

From article PMC11519908, “Luminescent Ln(III)-Metallopeptide Sensors for Monitoring Pseudomonas aeruginosa Elastase B Activity in Complex Biological Media” (ACS Sensors, 2024)
